Laboratory results reported in patent US20130287688A1, “NOVEL COMPOSITIONS AND USES OF ANTI-HYPERTENSION AGENTS FOR CANCER THERAPY” (XTUIT PHARMACEUTICALS, INC., priority 2010, published 2013).

Legend:
HSTS26T tumors [1] = assay: TSP-1 immunostaining of tumor sections; assay type: in vivo, SCID mice; settings: losartan treatment
Text: (§1) TSP-1 is a key regulator of TGF-β1 activation and losartan has been reported to reduce TSP-1 expression and TGF-β1 activation in mouse models of Marfan's syndrome and muscular dystrophy (Dietz H C (2010) J Clin Invest 120:403-407). […] In both Mu89 and HSTS26T tumors the immunostaining patterns for TSP-1 (FIGS. 7A-7B) and collagen I (FIGS. 5C-5D) were closely matched. The inventors detected high levels of TSP-1 and collagen I in the tumor margin, while losartan induced obvious reductions in TSP-1 and collagen I levels in the tumor center (FIGS. 5C, 7A).
(§2) Frozen sections were cut into 10 μm sections for immunohistochemistry and imaging. Collagen I was detected using the LF-67 antibody (1:100 dilution) with a previously described protocol (Znati C A, et al. (2003) Clin Cancer Res 9:5508-5513). TSP-1 was detected with a goat anti-human antibody (1:50 dilution), which cross-reacts with mice (sc-12312, Santa Cruz Biotechnology Inc., Santa Cruz, Calif.). For collagen and TSP-1 analysis, images at 20× magnification were taken randomly from each slide. The collagen and TSP-1 content was determined by measuring the number of pixels above a threshold value that was set based on the average intensity value of pixels from all slides under analysis. The background-signal intensity for both collagen I and thrombospondin-1 immunostaining was low and uniform.

Mu89 tumors [2] = assay: TSP-1 immunostaining of tumor sections; assay type: in vivo, SCID mice; settings: losartan treatment
Text: as §1, §2

[3] = system: L3.6 pl orthotopic pancreatic tumors; assay: Distribution and penetration of intravenously injected 100 nm nanoparticles; assay type: in vivo, mice; settings: i.v. injected 100 nm nanoparticles
Experimental: The inventors then assessed the effect of losartan on blood vessel perfusion and the intratumoral distribution of i.v. injected nanoparticles in mice with orthotopic pancreatic tumors (L3.6 pl).
A total volume of 10 μl at a concentration of 3.6×10^13 nanoparticles/ml was injected via the tail vein. Twenty-four hrs later 50 μl of FITC-lectin was injected to identify functional vessels. Five min after the lectin-injection tumors were resected, fixed in paraformaldehyde and embedded in OCT. Tumors were then sectioned before confocal imaging and analysis. The extent of nanosphere distribution was determined by measuring the fraction of pixels brighter than the background signal. Nanosphere penetration was determined by drawing contours around perfused vessels and recording the fraction of pixels positive for nanospheres in each contour. Contours extended out to 30 μm for each perfused vessel. Using a previously described algorithm (Tong R T, et al. (2004) Cancer Res 64:3731-3736), the inventors fit the plot of nanosphere fraction and distance away from the vessel to an exponential and obtained a relative penetration depth of nanospheres from each vessel.

HSTS26T tumors [4] = assay: Necrosis 21 days after HSV injection; assay type: in vivo, mice; settings: losartan prior to HSV injection
Text: (§3) Hematoxylin staining of intact tumor areas, necrosis, and HSV immunostaining is shown. Necrotic regions are indicated by black arrows. Even though there was no detectable difference in necrotic area between HSTS26T and MU89, necrosis is confined to specific regions in MU89 while there is necrotic tissue (bounded by HSV immunostaining) throughout HSTS26T tumors. Scale bar=2 mm.
(§4) To determine the relationship between virus infection, necrosis and collagen structure 21 days after the HSV injection, consecutive paraffin sections were stained with either a polyclonal HSV-1 antibody (DAKO, Glostrup Denmark) or a collagen I antibody (LF-67). For collagen I staining in paraffin sections, slides were treated with 3% hydrogen peroxide prior to antigen retrieval with Target Retrieval Solution, pH 9 (DAKO, Carpinteria, Calif.). The slides were then treated with 0.05% trypsin before the primary collagen I antibody was applied at a dilution of 1:500. Sections stained with collagen I or HSV were imaged with a light microscope.

Mu89 tumors [5] = assay: Necrosis 21 days after HSV injection; assay type: in vivo, mice; settings: losartan prior to HSV injection
Text: as §3, §4

HSTS26T tumors [6] = assay: Intratumoral spread of i.t. injected oncolytic HSV (GFP); assay type: in vivo, mice; settings: 24 hrs after i.t. injection of HSV expressing GFP
Text: (§5) Based on the previous studies on the tumor interstitial matrix (Pluen A, et al. (2001) Proc Natl Acad Sci USA 98:4628-4633 and Brown E, et al. (2003) Nat Med 9:796-800), the inventors then sought to determine if a decrease in collagen content by Losartan can improve the intratumoral distribution of nanoparticles. The inventors therefore measured the intratumoral distribution of fluorescent polystyrene nanoparticles (100 nm diameter) in three different tumor types—HSTS26T, Mu89, and L3.6 pl—after an i.t. or i.v. injection. In mice injected i.t. with nanoparticles, losartan improved nanoparticle accumulation and penetration in the tumor center (FIG. 8A; HSTS26T p<0.001, Mu89 p<0.001). Conversely, there was little or no nanoparticle accumulation in the center of control tumors. Most of the injected nanoparticles in control tumors were found in the tumor margin and around the needle insertion point (FIG. 8A). The inventors also determined the effects of losartan on the intratumoral distribution of oncolytic HSV.
(§6) Nanoparticles and oncolytic HSV were infused with a syringe pump (Harvard Apparatus Standard Pump 22, Holliston, Mass.) at a flow rate of 4 μl/min. The inventors injected 10 μl of HSV (2.5×10^5 t.u.) expressing the green fluorescent protein (GFP), or 10 μl of fluorescent nanoparticles (diameter of […]; concentration of 1×10^13 nanoparticles/ml). […]

Mu89 tumors [7] = assay: as above; assay type: in vivo, mice; settings: 24 hrs after i.t. injection of HSV expressing GFP
Text: as §5, §6

E0771 tumors [8] = assay: Nanoparticle penetration (effective permeability) by intravital multiphoton microscopy; assay type: in vivo, mice
Text: Penetration rates are quantified as effective permeability, which is the transvascular mass flux per unit vascular surface area and transvascular concentration difference.
Nanoparticle penetration rates were quantified as transvascular mass flux per unit vascular surface area and transvascular concentration difference, termed as the effective permeability.
Images were taken at ˜60 mW at sample surface. Mosaic images were taken in raster pattern using a motorized stage (H101, Prior Scientific) and customized automation software (LabView, National Instruments). Imaging studies were performed with a 20× magnification, 0.95NA water immersion objective (Olympus XLUMPlanFl, 1-UB965, Optical Analysis).
Concentrations were adjusted with in vitro calibration to result in roughly equal photoluminescence intensity for all three nanoparticle samples under 800 nm multiphoton excitation. […] Images were taken every 3 min at each region of interest for a duration of 1 hr. […] The analysis approach involved 3D vessel tracing to create vessel metrics and a 3D map of voxel intensity versus distance to the nearest vessel over time. Images were also corrected for sample movement over time with 3D image registration. The effective permeability was calculated with
Fluorescence intensities were used as these concentrations. The calculation was made as an average over the entire imaged volume for each tumor.

E0771 tumors [9] = assay: Mathematical analysis of perfused vessel network (multiphoton microscopy); assay type: in vivo, mice
E0771 breast tumors = assay: Vessel perfusion histology (lectin / CD31); assay type: in vivo, SCID mouse; settings: 40 mg/kg

## CCCCc1nc(Cl)c(CO)n1Cc1ccc(-c2ccccc2-c2nn[nH]n2)cc1 [losartan]
HSTS26T tumors [1]
  decrease in TSP-1 immunostaining: 73%
Mu89 tumors [2]
  decrease in TSP-1 immunostaining: 24%
[3]
  nanoparticle content in tumors vs control: two-fold increase
HSTS26T tumors [4]
  necrosis in tumors: two-fold increase
Mu89 tumors [5]
  necrosis in tumors: two-fold increase
HSTS26T tumors [6]
  virus spread: significantly increased
Mu89 tumors [7]
  virus spread: significantly increased
E0771 tumors [8]; 12 nm nanoparticles
  effective permeability: improved
E0771 tumors [8]; 60 nm nanoparticles
  effective permeability: improved
E0771 tumors [8]; 125 nm nanoparticles
  effective permeability: improved
E0771 tumors [9]; from a typical 1.89 in tumors toward 2.0 of normal capillary beds
  fractal dimension of vessel network: increases
E0771 tumors [9]; pre- and post-treatment (days 2-5)
  maximum distance drugs and oxygen must travel to reach tumor cells: decreases
E0771 breast tumors
  CD31+ vessel density: did not affect
  vessel diameters: increased
